The results in this text go back to US20240218022A1, “ANTI-VISTA MACROCYCLIC PEPTIDES AND COMPOSITIONS” (BRISTOL-MYERS SQUIBB COMPANY, priority 2022, published 2024).

The structures appear in SMILES notation. Positions of bridges follow the written chain, without caps; N, C: chain ends. Non-standard residues stand in square brackets, D forms with d. Residues, ends and D or L forms follow the SMILES beside them. Phe(3-Me) = Cc1cccc(C[C@H](N)C(=O)O)c1; Cit = NC(=O)NCCC[C@H](N)C(=O)O; Ahp(2) = CCCCC[C@H](N)C(=O)O; NMeNle = CCCC[C@H](NC)C(=O)O; NHexGly = CCCCCCNCC(=O)O; Nle = CCCC[C@H](N)C(=O)O; Orn = NCCC[C@H](N)C(=O)O

The target of this experiment is T1, mouse VISTA (mVISTA) (Mus musculus, UniProt Q9D659).
T1 construct: expressed in transfected cells; host or cells: Human embryonic kidney 293T cells
T1 sequence (Q9D659 33-308): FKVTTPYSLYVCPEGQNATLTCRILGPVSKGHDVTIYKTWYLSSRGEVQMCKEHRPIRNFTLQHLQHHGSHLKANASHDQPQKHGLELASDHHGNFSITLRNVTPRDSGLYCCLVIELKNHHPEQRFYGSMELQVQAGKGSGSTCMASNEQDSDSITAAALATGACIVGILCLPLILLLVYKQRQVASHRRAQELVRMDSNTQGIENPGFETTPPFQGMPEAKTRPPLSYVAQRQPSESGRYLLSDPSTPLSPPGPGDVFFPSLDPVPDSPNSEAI
The experiment can be described thus: Cell-Based Binding High-Content Assay For mVISTA (HC CBA mVISTA). The following applies: the 19th table, scaffold drawing 22; read-out: HC CBA mVISTA IC50. The procedure, abridged:
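293T cells expressing mouse VISTA, with compounds added either after seeding ("no wash") or before seeding and then washed out after 1 h. Biotinylated peptide 2 nM for 30 min at room temperature, then detection with Alexa 647–streptavidin. After fixation with Hoechst stain, plates were high-content imaged; IC50 from four-parameter logistic fit.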

Usually IC50 stands for the midpoint of a concentration-inhibition curve. Turning to `CCCCCCN1CC(=O)N[C@@H](Cc2ccc(O)cc2)C(=O)N[C@@H](CC(C)C)C(=O)N[C@@H](CC(N)=O)C(=O)N[C@@H](CCCNC(=N)N)C(=O)N[C@@H](CC(C)C)C(=O)N[C@@H](CCCCC)C(=O)N2CCC[C@H]2C(=O)N[C@@H](C(C)C)C(=O)N[C@@H](C(C)C)C(=O)N[C@H](C(=O)NCC(=O)O)CSCC(=O)N[C@@H](Cc2cccc(C)c2)C(=O)N[C@@H](Cc2c[nH]c3ccccc23)C(=O)N[C@@H](CC(=O)O)C1=O` [compound 1422] ({CH2CO}-[Phe(3-Me)]WD[NHexGly]YLNRL[Ahp(2)]PVVCG-OH; thioether N-14), the IC50 stood at 4.2 nM. Regarding `CCCCCCN1CC(=O)N[C@@H](Cc2ccc(O)cc2)C(=O)N[C@@H](CCCC)C(=O)N[C@@H](CC(N)=O)C(=O)N[C@@H](CCCNC(N)=O)C(=O)N[C@@H](CC(C)C)C(=O)N[C@@H](CCCCC)C(=O)N2CCC[C@H]2C(=O)N[C@@H](C(C)C)C(=O)N[C@@H](CC(=O)O)C(=O)N[C@H](C(=O)NCC(=O)O)CSCC(=O)N[C@@H](Cc2cccc(C)c2)C(=O)N[C@@H](Cc2c[nH]c3ccccc23)C(=O)N[C@@H](CC(=O)O)C1=O` [compound 1423] ({CH2CO}-[Phe(3-Me)]WD[NHexGly]Y[Nle]N[Cit]L[Ahp(2)]PVDCG-OH; thioether N-14), the IC50 was 16.7 nM. Turning to `CCCCCCN1CC(=O)N[C@@H](Cc2ccc(O)cc2)C(=O)N[C@@H](CCCC)C(=O)N[C@@H](CC(N)=O)C(=O)N[C@@H](CCCNC(=N)N)C(=O)N[C@@H](CC(C)C)C(=O)N[C@@H](CCCCC)C(=O)N2CCC[C@H]2C(=O)N[C@@H](C(C)C)C(=O)N[C@@H](CC(=O)O)C(=O)N[C@H](C(=O)N[C@@H](CO)C(=O)O)CSCC(=O)N[C@@H](Cc2cccc(C)c2)C(=O)N[C@@H](Cc2c[nH]c3ccccc23)C(=O)N[C@@H](CC(=O)O)C1=O` [compound 1424] ({CH2CO}-[Phe(3-Me)]WD[NHexGly]Y[Nle]NRL[Ahp(2)]PVDCS-OH; thioether N-14), the concentration for half-maximal inhibition (IC50) is 11.9 nM. In the case of `CCCCCCN1CC(=O)N[C@@H](Cc2ccc(O)cc2)C(=O)N[C@@H](CCCC)C(=O)NCC(=O)N[C@@H](CCCNC(=N)N)C(=O)N[C@@H](CC(C)C)C(=O)N[C@@H](CCCCC)C(=O)N2CCC[C@H]2C(=O)N[C@@H](C(C)C)C(=O)N[C@@H](CC(=O)O)C(=O)N[C@H](C(=O)N[C@@H](CO)C(=O)O)CSCC(=O)N[C@@H](Cc2cccc(C)c2)C(=O)N[C@@H](Cc2c[nH]c3ccccc23)C(=O)N[C@@H](CC(=O)O)C1=O` [compound 1425] ({CH2CO}-[Phe(3-Me)]WD[NHexGly]Y[Nle]GRL[Ahp(2)]PVDCS-OH; thioether N-14), the IC50 came out at 13.4 nM. In the case of `CCCCCCN1CC(=O)N[C@@H](Cc2ccc(O)cc2)C(=O)N[C@@H](CC(C)C)C(=O)N[C@@H](CC(N)=O)C(=O)N[C@@H](CCCNC(=N)N)C(=O)N[C@@H](CC(C)C)C(=O)N[C@@H](CCCCC)C(=O)N2CCC[C@H]2C(=O)N[C@@H](C(C)C)C(=O)N[C@@H](C(C)C)C(=O)N[C@H](C(=O)N[C@@H](CO)C(=O)O)CSCC(=O)N[C@@H](Cc2cccc(C)c2)C(=O)N[C@@H](Cc2c[nH]c3ccccc23)C(=O)N[C@@H](CC(=O)O)C1=O` [compound 1426] ({CH2CO}-[Phe(3-Me)]WD[NHexGly]YLNRL[Ahp(2)]PVVCS-OH; thioether N-14), the IC50 came out at 4.1 nM. With `CCCCCCN1CC(=O)N[C@@H](Cc2ccc(O)cc2)C(=O)N[C@@H](CCCC)C(=O)N[C@@H](CC(=O)O)C(=O)N[C@@H](CCCN)C(=O)N[C@@H](CC(C)C)C(=O)N[C@@H](CCCCC)C(=O)N2CCC[C@H]2C(=O)N[C@@H](C(C)C)C(=O)N[C@@H](CC(=O)O)C(=O)N[C@H](C(=O)N[C@@H](CO)C(N)=O)CSCC(=O)N[C@@H](Cc2cccc(C)c2)C(=O)N[C@@H](Cc2c[nH]c3ccccc23)C(=O)N[C@@H](CC(=O)O)C1=O` [compound 1427] ({CH2CO}-[Phe(3-Me)]WD[NHexGly]Y[Nle]D[Orn]L[Ahp(2)]PVDCS-NH2; thioether N-14), the IC50 stood at 9.4 nM. With `CCCCCCN1CC(=O)N[C@@H](Cc2ccc(O)cc2)C(=O)N[C@@H](CCCC)C(=O)N[C@@H](CC(=O)O)C(=O)N[C@@H](CCCNC(=N)N)C(=O)N[C@@H](CC(C)C)C(=O)N[C@@H](CCCCC)C(=O)N2CCC[C@H]2C(=O)N[C@@H](C(C)C)C(=O)N[C@@H](CC(=O)O)C(=O)N[C@H](C(=O)N[C@@H](CO)C(N)=O)CSCC(=O)N[C@@H](Cc2cccc(C)c2)C(=O)N[C@@H](Cc2c[nH]c3ccccc23)C(=O)N[C@@H](CC(=O)O)C1=O` [compound 1428] ({CH2CO}-[Phe(3-Me)]WD[NHexGly]Y[Nle]DRL[Ahp(2)]PVDCS-NH2; thioether N-14), the IC50 was found to be 13.6 nM. Turning to `CCCCCCN1CC(=O)N[C@@H](Cc2ccc(O)cc2)C(=O)N[C@@H](CCCC)C(=O)N[C@@H](CC(=O)O)C(=O)N[C@@H](CCCN)C(=O)N[C@@H](CC(C)C)C(=O)N[C@@H](CCCCC)C(=O)N2CCC[C@H]2C(=O)N[C@@H](C(C)C)C(=O)N[C@@H](CC(=O)O)C(=O)N[C@H](C(=O)N[C@@H](CC(=O)O)C(N)=O)CSCC(=O)N[C@@H](Cc2cccc(C)c2)C(=O)N[C@@H](Cc2ccc(O)cc2)C(=O)N[C@@H](CC(=O)O)C1=O` [compound 1430] ({CH2CO}-[Phe(3-Me)]YD[NHexGly]Y[Nle]D[Orn]L[Ahp(2)]PVDCD-NH2; thioether N-14), the IC50 is 6.2 nM. In the case of `CCCCCCN1CC(=O)N[C@@H](Cc2ccc(O)cc2)C(=O)N[C@@H](CCCC)C(=O)NCC(=O)N[C@@H](CCCNC(=N)N)C(=O)N[C@@H](CC(C)C)C(=O)N[C@@H](CCCCC)C(=O)N2CCC[C@H]2C(=O)N[C@@H](C(C)C)C(=O)N[C@@H](CC(=O)O)C(=O)N[C@H](C(=O)NCC(=O)O)CSCC(=O)N[C@@H](Cc2cccc(C)c2)C(=O)N[C@@H](Cc2ccc(O)cc2)C(=O)N[C@@H](CC(=O)O)C1=O` [compound 1431] ({CH2CO}-[Phe(3-Me)]YD[NHexGly]Y[Nle]GRL[Ahp(2)]PVDCG-OH; thioether N-14), the IC50 was 2.5 nM. Consider `CCCCCCN1CC(=O)N[C@@H](Cc2ccc(O)cc2)C(=O)N[C@@H](CC(C)C)C(=O)N[C@@H](CC(N)=O)C(=O)N[C@@H](CCCNC(=N)N)C(=O)N[C@@H](CC(C)C)C(=O)N[C@@H](CCCCC)C(=O)N2CCC[C@H]2C(=O)N[C@@H](C(C)C)C(=O)N[C@@H](C(C)C)C(=O)N[C@H](C(=O)NCC(=O)O)CSCC(=O)N[C@@H](Cc2cccc(C)c2)C(=O)N[C@@H](Cc2ccc(O)cc2)C(=O)N[C@@H](CC(=O)O)C1=O` [compound 1432] ({CH2CO}-[Phe(3-Me)]YD[NHexGly]YLNRL[Ahp(2)]PVVCG-OH; thioether N-14), for which the IC50 worked out at 3 nM. For the compound `CCCCCCN1CC(=O)N[C@@H](Cc2ccc(O)cc2)C(=O)N[C@@H](CC(C)C)C(=O)N[C@@H](CC(N)=O)C(=O)N[C@@H](CCCNC(=N)N)C(=O)N[C@@H](CC(C)C)C(=O)N[C@@H](CCCCC)C(=O)N2CCC[C@H]2C(=O)N[C@@H](C(C)C)C(=O)N[C@@H](C(C)C)C(=O)N[C@H](C(=O)N[C@@H](CO)C(=O)O)CSCC(=O)N[C@@H](Cc2cccc(C)c2)C(=O)N[C@@H](Cc2ccc(O)cc2)C(=O)N[C@@H](CC(=O)O)C1=O` [compound 1434] ({CH2CO}-[Phe(3-Me)]YD[NHexGly]YLNRL[Ahp(2)]PVVCS-OH; thioether N-14), the 50% inhibitory concentration (IC50) was 20.4 nM. On to `CCCCCCN1CC(=O)N[C@@H](Cc2ccc(O)cc2)C(=O)N[C@@H](CCCC)C(=O)NCC(=O)N[C@@H](CCCNC(=N)N)C(=O)N[C@@H](CC(C)C)C(=O)N[C@@H](CCCCC)C(=O)N2CCC[C@H]2C(=O)N[C@@H](C(C)C)C(=O)N[C@@H](CC(=O)O)C(=O)N[C@H](C(=O)N[C@@H](CO)C(=O)O)CSCC(=O)N[C@@H](Cc2cccc(C)c2)C(=O)N[C@@H](Cc2ccc(O)cc2)C(=O)N[C@@H](CC(=O)O)C1=O` [compound 1435] ({CH2CO}-[Phe(3-Me)]YD[NHexGly]Y[Nle]GRL[Ahp(2)]PVDCS-OH; thioether N-14), for which the concentration for half-maximal inhibition (IC50) stood at 9.4 nM. For the compound `CCCCCCN1CC(=O)N[C@@H](Cc2ccc(O)cc2)C(=O)N[C@@H](CCCC)C(=O)N[C@@H](CC(=O)O)C(=O)N[C@@H](CCCN)C(=O)N[C@@H](CC(C)C)C(=O)N[C@@H](CCCCC)C(=O)N2CCC[C@H]2C(=O)N[C@@H](C(C)C)C(=O)N[C@@H](CC(=O)O)C(=O)N[C@H](C(=O)N[C@@H](CO)C(N)=O)CSCC(=O)N[C@@H](Cc2cccc(C)c2)C(=O)N[C@@H](Cc2ccc(O)cc2)C(=O)N[C@@H](CC(=O)O)C1=O` [compound 1436] ({CH2CO}-[Phe(3-Me)]YD[NHexGly]Y[Nle]D[Orn]L[Ahp(2)]PVDCS-NH2; thioether N-14), the half-inhibitory concentration (IC50) was 10.6 nM. As to `CCCCCCN1CC(=O)N[C@@H](Cc2ccc(O)cc2)C(=O)N[C@@H](CCCC)C(=O)N[C@@H](CC(=O)O)C(=O)N[C@@H](CCCNC(=N)N)C(=O)N[C@@H](CC(C)C)C(=O)N[C@@H](CCCCC)C(=O)N2CCC[C@H]2C(=O)N[C@@H](C(C)C)C(=O)N[C@@H](CC(=O)O)C(=O)N[C@H](C(=O)N[C@@H](CO)C(N)=O)CSCC(=O)N[C@@H](Cc2cccc(C)c2)C(=O)N[C@@H](Cc2ccc(O)cc2)C(=O)N[C@@H](CC(=O)O)C1=O` [compound 1437] ({CH2CO}-[Phe(3-Me)]YD[NHexGly]Y[Nle]DRL[Ahp(2)]PVDCS-NH2; thioether N-14), the concentration for half-maximal inhibition (IC50) was determined as 18.2 nM. The same measure for `CCCCCCN1CC(=O)N[C@@H](Cc2ccc(O)cc2)C(=O)N[C@@H](CCCC)C(=O)N[C@@H](CC(=O)O)C(=O)N[C@@H](CCCNC(N)=O)C(=O)N(C)[C@@H](CCCC)C(=O)N[C@@H](CCCCC)C(=O)N2CCC[C@H]2C(=O)N[C@@H](C(C)C)C(=O)N[C@@H](CC(=O)O)C(=O)N[C@H](C(=O)N[C@@H](CC(=O)O)C(N)=O)CSCC(=O)N[C@@H](Cc2cccc(C)c2)C(=O)N[C@@H](Cc2c[nH]c3ccccc23)C(=O)N[C@@H](CC(=O)O)C1=O` [compound 1438] ({CH2CO}-[Phe(3-Me)]WD[NHexGly]Y[Nle]D[Cit][NMeNle][Ahp(2)]PVDCD-NH2; thioether N-14): 22.4 nM.
